{
  "source": "patent US11339171B2",
  "about": "“MDM2 inhibitors” (Gan & Lee Pharmaceuticals, priority 2017, dated 2022)",
  "key": {"MDM2": {"molecular_target": "T1, MDM2 (Homo sapiens, UniProt Q00987)", "T1 construct": "made in house", "T1 sequence (Q00987 whole entry)": "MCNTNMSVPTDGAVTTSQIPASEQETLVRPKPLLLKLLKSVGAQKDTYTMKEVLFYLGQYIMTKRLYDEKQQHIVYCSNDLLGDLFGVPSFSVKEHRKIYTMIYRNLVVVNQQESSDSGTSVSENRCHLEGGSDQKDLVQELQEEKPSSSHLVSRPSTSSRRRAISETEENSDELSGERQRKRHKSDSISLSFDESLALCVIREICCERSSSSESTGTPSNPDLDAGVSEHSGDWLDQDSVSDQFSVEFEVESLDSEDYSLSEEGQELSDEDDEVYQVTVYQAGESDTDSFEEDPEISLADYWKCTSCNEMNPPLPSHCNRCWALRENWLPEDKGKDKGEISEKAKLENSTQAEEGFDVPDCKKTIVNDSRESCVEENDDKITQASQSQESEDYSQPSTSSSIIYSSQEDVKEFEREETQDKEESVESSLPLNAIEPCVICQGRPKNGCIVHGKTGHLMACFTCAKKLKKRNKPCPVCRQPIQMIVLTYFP", "experiment": "Inhibition test of MDM2-P53 (GST-MDM2, Biotin-P53, Anti-GST-Tb, SA-XL665)", "assay_type": "binding", "how_it_was_run": "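Binding was measured by TR-FRET with GST-MDM2 at 4 nM final in PBS with 0.1% BSA, 5 mM DTT and 1 mM AEBSF. Compounds were tested as twelve-point 5-fold dilutions and incubated with the detection mix for 90 min at 25 °C with shaking before plate-reader reading and curve fitting.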"}, "[1]": {"experiment": "Pharmacokinetics in ICR mice after intravenous and intragastric administration", "assay_type": "in vivo", "conditions": "for MRT last: read-out: MRT(0-t); for MRT inf: read-out: MRT(0-∞); for Vd: read-out: Vz; for half-life: read-out: t1/2 (converted)", "method": "Experimental Example 3 Determination of the Pharmacokinetics of the Mdm2 Inhibitors of the Present Invention in Mice\nICR mice were used as the test animals, and the concentrations of the drugs in plasma of mice at different time points after intravenous administration and intragastric administration of the representative compounds were measured by a LC/MS/MS method, so as to study the pharmacokinetic behavior of the compounds of the present invention in mice and evaluate the pharmacokinetic characteristics thereof.\nSome compounds prepared in Examples 1-180 of the present invention.\nThe control drug HDM201 was prepared by the method disclosed in patent No. CN104203952A.\nHealthy adult ICR mice, male, 6-9 weeks old, weighing 20-30 g, purchased from Shanghai Xipuer-Bikai Laboratory Animal Co., Ltd., Animal Production License No.: SCXK (HU) 2013-0016\n3.2.3 Preparation of Test Drugs\nIntragastric or intravenous administration: an appropriate amount of sample was weighed, dissolved in 5% DMSO+40% PEG400+55% (10% HP-β-CD in Saline) to prepare a 0.5 mg/ml solution for intragastric or intravenous administration.\n3.2.4 Administration of Test Drugs\nIntravenous administration: for each test compound, 3 male ICR mice were administered intravenously at a dose of 2 mg/kg and an administration volume of […] after fasting overnight.\nIntragastric administration: for each test compound, 3 male ICR mice were administered intragastrically at a dose of 5 mg/kg and an administration volume of […] after fasting overnight.\n3.3 Experimental Operation\nThe collected plasma was stored at −80° C. before analysis. The plasma sample was analyzed by LC-MS/MS, and the sample was pretreated by protein precipitation method. The linear range of sample analysis was 1 to 2000 ng/ml. The lowest quantification limit was 1 ng/mL. WinNonlin (Pharsight, USA) was used to calculate the following pharmacokinetic parameters: area under the curve AUC(0-t), area under the curve AUC(0-∞), half-life t1/2, retention time MRT(0-∞), blood drug concentration Cmax, time taken to reach the peak blood drug concentration Tmax, bioavailability F, apparent volume of distribution Vz, and clearance rate CL."}, "[2]": {"test_system": "human osteosarcoma cell line SJSA-1", "experiment": "Inhibition of proliferation of human osteosarcoma cell line SJSA-1 (DAPI staining, In Cell Analyzer)", "conditions": "Homo sapiens, SJSA-1, 72 h, read-out: IC50 (nM), inhibitory activity on proliferation of human osteosarcoma cell line SJSA-1, SJSA-1, incubated 72 h"}, "[3]": {"conditions": "IV 2 mg/kg, ICR mice, individual animal, 2 mg/kg"}, "[4]": {"conditions": "PO 5 mg/kg, ICR mice, individual animal, 5 mg/kg"}, "[5]": {"conditions": "male, ICR, mouse, plasma, iv, 2 mg/kg, IV 2 mg/kg, ICR mice, Mean"}, "[6]": {"conditions": "male, ICR, mouse, plasma, iv, 2 mg/kg, IV 2 mg/kg, ICR mice, individual animal"}, "[7]": {"conditions": "male, ICR, mouse, plasma, po, 5 mg/kg, PO 5 mg/kg, ICR mice, Mean"}, "[8]": {"conditions": "male, ICR, mouse, plasma, po, 5 mg/kg, PO 5 mg/kg, ICR mice, individual animal"}},
  "note": "Where “and” joins values, the source holds several entries; their conditions need not be identical. Equal values may be shown once. Read-outs that look alike come from different tables or passages of the source.",
  "data": [
    {"smiles": "COc1ccc(-c2nc3c(n2C(C)C)[C@@]2(C(=O)Nc4cc(Cl)ccc42)N(c2cc(Cl)ccc2C)C3=O)c(OC)c1", "note": "[Example S-9, (S)-6-chloro-5′-(5-chloro-2-methylphenyl)-2′-(2,4-dimethoxyphenyl)-3′-isopropyl-3′H-spiro[dihydroindole-3,4′-pyrrolo[3,4-d]imidazole]-2,6′(5′H)-dione]", "values": [
      {"measurement": "IC50", "setting": "MDM2", "result": 2.38, "unit": "nM"},
      {"measurement": "AUC(0-t)", "setting": "[1]; [3]", "result": "4107.04 ng·h/mL and 3334.44 ng·h/mL"},
      {"measurement": "AUC(0-∞)", "setting": "[1]; [3]", "result": "4214.93 ng·h/mL and 3452.37 ng·h/mL"},
      {"measurement": "CL", "setting": "[1]; [3]", "result": "7.9083 mL/min/kg and 9.6552 mL/min/kg"},
      {"measurement": "Cmax", "setting": "[1]; [3]", "result": "1643.99 ng/mL and 1403.26 ng/mL"},
      {"measurement": "MRT(0-t)", "setting": "[1]; [3]", "result": 1.47, "unit": "h"},
      {"measurement": "MRT(0-∞)", "setting": "[1]; [3]", "result": "1.63 h and 1.68 h"},
      {"measurement": "Vz", "setting": "[1]; [3]", "result": "0.79338 L/kg and 1.05516 L/kg"},
      {"measurement": "t1/2", "setting": "[1]; [3]", "result": "1.16 h and 1.26 h"},
      {"measurement": "F*", "setting": "[1]; PO 5 mg/kg vs IV 2 mg/kg, ICR mice", "result": 79.30, "unit": "%"},
      {"measurement": "AUC(0-t)", "setting": "[1]; [4]", "result": "8692.39 ng·h/mL and 6976.33 ng·h/mL"},
      {"measurement": "AUC(0-∞)", "setting": "[1]; [4]", "result": "8911.44 ng·h/mL and 7048.92 ng·h/mL"},
      {"measurement": "Cmax", "setting": "[1]; [4]", "result": "2009.05 ng/mL and 1914.07 ng/mL"},
      {"measurement": "MRT(0-t)", "setting": "[1]; [4]", "result": "2.60 h and 2.68 h"},
      {"measurement": "MRT(0-∞)", "setting": "[1]; [4]", "result": "2.78 h and 2.75 h"},
      {"measurement": "Tmax", "setting": "[1]; [4]", "result": 1.00, "unit": "h"},
      {"measurement": "t1/2", "setting": "[1]; [4]", "result": "1.44 h and 1.22 h"},
      {"measurement": "AUC(0-inf)", "setting": "[1]; [5]", "result": 3830, "unit": "ng·h/mL"},
      {"measurement": "clearance", "setting": "[1]; [5]", "result": 8.76, "unit": "mL/min/kg"},
      {"measurement": "AUC(0-t)", "setting": "[1]; male, ICR, mouse, plasma, iv, 2 mg/kg, IV 2 mg/kg, ICR mice, Mean, read-out: AUC(0-t)", "result": 3700, "unit": "ng·h/mL"},
      {"measurement": "Cmax", "setting": "[1]; male, ICR, mouse, plasma, iv, 2 mg/kg, IV 2 mg/kg, ICR mice, Mean, read-out: Cmax", "result": 1440, "unit": "ng/mL"},
      {"measurement": "MRT last", "setting": "[1]; [5]", "result": 1.51, "unit": "h"},
      {"measurement": "MRT inf", "setting": "[1]; [5]", "result": 1.73, "unit": "h"},
      {"measurement": "Tmax", "setting": "[1]; male, ICR, mouse, plasma, iv, 2 mg/kg, IV 2 mg/kg, ICR mice, Mean, read-out: Tmax", "result": 0.083, "unit": "h"},
      {"measurement": "Vd", "setting": "[1]; [5]", "result": 0.968, "unit": "L/kg"},
      {"measurement": "half-life", "setting": "[1]; [5]", "result": 1.27, "unit": "h"},
      {"measurement": "AUC(0-inf)", "setting": "[1]; [6]", "result": 3830, "unit": "ng·h/mL"},
      {"measurement": "clearance", "setting": "[1]; [6]", "result": 8.7, "unit": "mL/min/kg"},
      {"measurement": "AUC(0-t)", "setting": "[1]; male, ICR, mouse, plasma, iv, 2 mg/kg, IV 2 mg/kg, ICR mice, individual animal, read-out: AUC(0-t)", "result": 3650, "unit": "ng·h/mL"},
      {"measurement": "Cmax", "setting": "[1]; male, ICR, mouse, plasma, iv, 2 mg/kg, IV 2 mg/kg, ICR mice, individual animal, read-out: Cmax", "result": 1270, "unit": "ng/mL"},
      {"measurement": "MRT last", "setting": "[1]; [6]", "result": 1.58, "unit": "h"},
      {"measurement": "MRT inf", "setting": "[1]; [6]", "result": 1.88, "unit": "h"},
      {"measurement": "Tmax", "setting": "[1]; male, ICR, mouse, plasma, iv, 2 mg/kg, IV 2 mg/kg, ICR mice, individual animal, read-out: Tmax", "result": 0.08, "unit": "h"},
      {"measurement": "Vd", "setting": "[1]; [6]", "result": 1.05, "unit": "L/kg"},
      {"measurement": "half-life", "setting": "[1]; [6]", "result": 1.4, "unit": "h"},
      {"measurement": "AUC(0-inf)", "setting": "[1]; [7]", "result": 7510, "unit": "ng·h/mL"},
      {"measurement": "AUC(0-t)", "setting": "[1]; male, ICR, mouse, plasma, po, 5 mg/kg, PO 5 mg/kg, ICR mice, Mean, read-out: AUC(0-t)", "result": 7330, "unit": "ng·h/mL"},
      {"measurement": "Cmax", "setting": "[1]; male, ICR, mouse, plasma, po, 5 mg/kg, PO 5 mg/kg, ICR mice, Mean, read-out: Cmax", "result": 1760, "unit": "ng/mL"},
      {"measurement": "MRT last", "setting": "[1]; [7]", "result": 2.64, "unit": "h"},
      {"measurement": "MRT inf", "setting": "[1]; [7]", "result": 2.82, "unit": "h"},
      {"measurement": "Tmax", "setting": "[1]; male, ICR, mouse, plasma, po, 5 mg/kg, PO 5 mg/kg, ICR mice, Mean, read-out: Tmax", "result": 1.33, "unit": "h"},
      {"measurement": "half-life", "setting": "[1]; [7]", "result": 1.41, "unit": "h"},
      {"measurement": "AUC(0-inf)", "setting": "[1]; [8]", "result": 6560, "unit": "ng·h/mL"},
      {"measurement": "AUC(0-t)", "setting": "[1]; male, ICR, mouse, plasma, po, 5 mg/kg, PO 5 mg/kg, ICR mice, individual animal, read-out: AUC(0-t)", "result": 6320, "unit": "ng·h/mL"},
      {"measurement": "Cmax", "setting": "[1]; male, ICR, mouse, plasma, po, 5 mg/kg, PO 5 mg/kg, ICR mice, individual animal, read-out: Cmax", "result": 1370, "unit": "ng/mL"},
      {"measurement": "MRT last", "setting": "[1]; [8]", "result": 2.65, "unit": "h"},
      {"measurement": "MRT inf", "setting": "[1]; [8]", "result": 2.92, "unit": "h"},
      {"measurement": "Tmax", "setting": "[1]; male, ICR, mouse, plasma, po, 5 mg/kg, PO 5 mg/kg, ICR mice, individual animal, read-out: Tmax", "result": 2, "unit": "h"},
      {"measurement": "half-life", "setting": "[1]; [8]", "result": 1.57, "unit": "h"},
      {"measurement": "AUC(0-t)", "setting": "[1]; male, ICR, mouse, plasma, po, 5 mg/kg, oral intragastric administration 5 mg/kg, read-out: AUC0-t", "result": 7330, "unit": "ng·h/mL"},
      {"measurement": "IC50", "setting": "[2]", "result": 7.39, "unit": "nM"}
    ]}
  ]
}
